Reference: ChEMBL document CHEMBL2040738, “Regioselective N1-alkylation of 3,4-dihydropyrimidine-2(1H)-ones: screening of their biological activities against Ca(2+)-ATPase” (Eur J Med Chem, 2012)
The source made the active and inactive calls. The calls are words filed in the database; no cut-off is given here.

Legend:
[1] = Inhibition of goat Ca2+-ATPase assessed as liberation of inorganic phosphate preincubated for 5 mins measured after 30 mins following ATP addition by colorimetric analysis in presence of Mg2+; set-up: species or system Capra hircus; conditions: read-out: I50
Capra hircus [2] = organism: Capra hircus; experiment: Inhibition of goat Ca2+-ATPase assessed as liberation of inorganic phosphate preincubated for 5 mins measured after 30 mins following ATP addition by colorimetric analysis in presence of Mg2+ and 300 uM verapamil
[3] = Inhibition of goat Ca2+-ATPase assessed as liberation of inorganic phosphate preincubated for 5 mins measured after 30 mins following ATP addition by colorimetric analysis in absence of Mg2+; set-up: species or system Capra hircus; conditions: read-out: I50
Capra hircus [4] = organism: Capra hircus; experiment: Inhibition of goat Ca2+-ATPase assessed as liberation of inorganic phosphate preincubated for 5 mins measured after 30 mins following ATP addition by colorimetric analysis in absence of Mg2+ and 300 uM verapamil
[5] = Inhibition of sodium/potassium ATPAse

Row | IC50 [1] [µM] | inhibition (Capra hircus [2]) | IC50 [3] [µM] | inhibition (Capra hircus [4]) | inhibition [5] | SMILES
1 | 268 | Active | 247 | Active | inactive | CCOC(=O)C1=C(C)NC(=O)NC1c1ccccc1Cl (stereo not given)
2 | 222 | Active | 226 | Active | inactive | CCOC(=O)C1=C(C)NC(=O)NC1c1ccccc1 (stereo not given)
3 | 132 | Active | 282 | Active | inactive | CCOC(=O)C1=C(C)NC(=O)NC1c1cccc([N+](=O)[O-])c1 (stereo not given)
4 | 289 | Active | 203 | Active | inactive | CCOC(=O)C1=C(C)NC(=O)NC1c1ccc(O)cc1 (stereo not given)
